Paper PMC6858927 (Investigational new drugs, 2019)
Read-outs that look alike come from different tables or passages of the source.

[1] = Cohort B Dose 2: 400mg, Decitabine (n=2), grade 3+
[2] = Cohort B dose 1: 200mg, Decitabine (n=6), Total
[3] = Cohort B dose 1: 200mg, Decitabine (n=6), grade 1&2
[4] = Cohort B dose 1: 200mg, Decitabine (n=6), grade 3+

C1=C/COCc2cc(ccc2OCCN2CCCC2)Nc2nccc(n2)-c2cccc(c2)COC/1 [Pacritinib, 11-(2-pyrrolidin-1-yl-ethoxy)-14,19-dioxa-5,7,26-triaza-tetracyclo[19.3.1.1(2,6). 1(8,12)]heptacosa-1(25),2(26),3,5,8,10,12(27),16,21,23-decaene]
HYPERTENSION, patients (%) [1]: 0 | HYPOALBUMINEMIA, patients (%) [1]: 0 | HYPOKALEMIA, patients (%) [1]: 1 (50) | HYPOPHOSPHATEMIA, patients (%) [1]: 0 | HYPOXIA, patients (%) [1]: 0 | LUNG INFECTION, patients (%) [1]: 0 | LYMPHOCYTE COUNT DECREASED, patients (%) [1]: 1 (50) | MUCOSITIS ORAL, patients (%) [1]: 0 | NAUSEA, patients (%) [1]: 1 (50) | NEUTROPHIL COUNT DECREASED, patients (%) [1]: 1 (50) | PLATELET COUNT DECREASED, patients (%) [1]: 1 (50) | PLEURAL EFFUSION, patients (%) [1]: 0 | PRURITUS, patients (%) [1]: 0 | RASH MACULO-PAPULAR, patients (%) [1]: 0 | RASH, patients (%) [1]: 0 | RESPIRATORY FAILURE, patients (%) [1]: 0 | VOMITING, patients (%) [1]: 0 | WHITE BLOOD CELL DECREASED, patients (%) [1]: 1 (50) | ACTIVATED PARTIAL THROMBOPLASTIN TIME PROLONGED, patients (%) [2]: 1 (16.7) | ANEMIA, patients (%) [2]: 6 (100) | ANOREXIA, patients (%) [2]: 2 (33.3) | CONSTIPATION, patients (%) [2]: 1 (16.7) | DIARRHEA, patients (%) [2]: 1 (16.7) | DYSPNEA, patients (%) [2]: 0 | EDEMA LIMBS, patients (%) [2]: 1 (16.7) | ELECTROCARDIOGRAM QT CORRECTED INTERVAL PROLONGED, patients (%) [2]: 2 (33.3) | FATIGUE, patients (%) [2]: 2 (33.3) | FEBRILE NEUTROPENIA, patients (%) [2]: 1 (16.7) | HYPERGLYCEMIA, patients (%) [2]: 1 (16.7) | HYPERTENSION, patients (%) [2]: 0 | HYPOALBUMINEMIA, patients (%) [2]: 1 (16.7) | HYPOKALEMIA, patients (%) [2]: 2 (33.3) | HYPOPHOSPHATEMIA, patients (%) [2]: 1 (16.7) | HYPOXIA, patients (%) [2]: 0 | LUNG INFECTION, patients (%) [2]: 1 (16.7) | LYMPHOCYTE COUNT DECREASED, patients (%) [2]: 3 (50) | MUCOSITIS ORAL, patients (%) [2]: 2 (33.3) | NAUSEA, patients (%) [2]: 3 (50) | NEUTROPHIL COUNT DECREASED, patients (%) [2]: 3 (50) | PLATELET COUNT DECREASED, patients (%) [2]: 5 (83.3) | PLEURAL EFFUSION, patients (%) [2]: 1 (16.7) | PRURITUS, patients (%) [2]: 0 | RASH MACULO-PAPULAR, patients (%) [2]: 0 | RASH, patients (%) [2]: 1 (16.7) | RESPIRATORY FAILURE, patients (%) [2]: 1 (16.7) | VOMITING, patients (%) [2]: 2 (33.3) | WHITE BLOOD CELL DECREASED, patients (%) [2]: 3 (50) | ACTIVATED PARTIAL THROMBOPLASTIN TIME PROLONGED, patients (%) [3]: 1 (16.7) | ANEMIA, patients (%) [3]: 1 (16.7) | ANOREXIA, patients (%) [3]: 2 (33.3) | CONSTIPATION, patients (%) [3]: 1 (16.7) | DIARRHEA, patients (%) [3]: 1 (16.7) | DYSPNEA, patients (%) [3]: 0 | EDEMA LIMBS, patients (%) [3]: 1 (16.7) | ELECTROCARDIOGRAM QT CORRECTED INTERVAL PROLONGED, patients (%) [3]: 1 (16.7) | FATIGUE, patients (%) [3]: 2 (33.3) | FEBRILE NEUTROPENIA, patients (%) [3]: 0 | HYPERGLYCEMIA, patients (%) [3]: 1 (16.7) | HYPERTENSION, patients (%) [3]: 0 | HYPOALBUMINEMIA, patients (%) [3]: 1 (16.7) | HYPOKALEMIA, patients (%) [3]: 2 (33.3) | HYPOPHOSPHATEMIA, patients (%) [3]: 0 | HYPOXIA, patients (%) [3]: 0 | LUNG INFECTION, patients (%) [3]: 0 | LYMPHOCYTE COUNT DECREASED, patients (%) [3]: 1 (16.7) | MUCOSITIS ORAL, patients (%) [3]: 1 (16.7) | NAUSEA, patients (%) [3]: 3 (50) | NEUTROPHIL COUNT DECREASED, patients (%) [3]: 0 | PLATELET COUNT DECREASED, patients (%) [3]: 0 | PLEURAL EFFUSION, patients (%) [3]: 1 (16.7) | PRURITUS, patients (%) [3]: 0 | RASH MACULO-PAPULAR, patients (%) [3]: 0 | RASH, patients (%) [3]: 1 (16.7) | RESPIRATORY FAILURE, patients (%) [3]: 0 | VOMITING, patients (%) [3]: 2 (33.3) | WHITE BLOOD CELL DECREASED, patients (%) [3]: 0 | ACTIVATED PARTIAL THROMBOPLASTIN TIME PROLONGED, patients (%) [4]: 0 | ANEMIA, patients (%) [4]: 5 (83.3) | ANOREXIA, patients (%) [4]: 0 | CONSTIPATION, patients (%) [4]: 0 | DIARRHEA, patients (%) [4]: 0 | DYSPNEA, patients (%) [4]: 0 | EDEMA LIMBS, patients (%) [4]: 0 | ELECTROCARDIOGRAM QT CORRECTED INTERVAL PROLONGED, patients (%) [4]: 1 (16.7) | FATIGUE, patients (%) [4]: 0 | FEBRILE NEUTROPENIA, patients (%) [4]: 1 (16.7) | HYPERGLYCEMIA, patients (%) [4]: 0 | HYPERTENSION, patients (%) [4]: 0 | HYPOALBUMINEMIA, patients (%) [4]: 0 | HYPOKALEMIA, patients (%) [4]: 0 | HYPOPHOSPHATEMIA, patients (%) [4]: 1 (16.7) | HYPOXIA, patients (%) [4]: 0 | LUNG INFECTION, patients (%) [4]: 1 (16.7) | LYMPHOCYTE COUNT DECREASED, patients (%) [4]: 2 (33.3) | MUCOSITIS ORAL, patients (%) [4]: 1 (16.7) | NAUSEA, patients (%) [4]: 0 | NEUTROPHIL COUNT DECREASED, patients (%) [4]: 3 (50) | PLATELET COUNT DECREASED, patients (%) [4]: 5 (83.3) | PLEURAL EFFUSION, patients (%) [4]: 0 | PRURITUS, patients (%) [4]: 0 | RASH MACULO-PAPULAR, patients (%) [4]: 0 | RASH, patients (%) [4]: 0 | RESPIRATORY FAILURE, patients (%) [4]: 1 (16.7) | VOMITING, patients (%) [4]: 0 | WHITE BLOOD CELL DECREASED, patients (%) [4]: 3 (50) | ACTIVATED PARTIAL THROMBOPLASTIN TIME PROLONGED, patients (%) (Overall (n=13), Total): 2 (15.4) | ANEMIA, patients (%) (Overall (n=13), Total): 11 (84.6) | ANOREXIA, patients (%) (Overall (n=13), Total): 2 (15.4) | CONSTIPATION, patients (%) (Overall (n=13), Total): 2 (15.4) | DIARRHEA, patients (%) (Overall (n=13), Total): 4 (30.8) | DYSPNEA, patients (%) (Overall (n=13), Total): 2 (15.4) | EDEMA LIMBS, patients (%) (Overall (n=13), Total): 2 (15.4) | ELECTROCARDIOGRAM QT CORRECTED INTERVAL PROLONGED, patients (%) (Overall (n=13), Total): 6 (46.2) | FATIGUE, patients (%) (Overall (n=13), Total): 5 (38.5) | HYPERTENSION, patients (%) (Overall (n=13), Total): 3 (23.1) | HYPOKALEMIA, patients (%) (Overall (n=13), Total): 4 (30.8) | LUNG INFECTION, patients (%) (Overall (n=13), Total): 2 (15.4) | LYMPHOCYTE COUNT DECREASED, patients (%) (Overall (n=13), Total): 7 (53.8) | MUCOSITIS ORAL, patients (%) (Overall (n=13), Total): 4 (30.8) | NAUSEA, patients (%) (Overall (n=13), Total): 7 (53.8) | RASH MACULO-PAPULAR, patients (%) (Overall (n=13), Total): 2 (15.4) | ACTIVATED PARTIAL THROMBOPLASTIN TIME PROLONGED, patients (%) (Overall (n=13), grade 1&2): 2 (15.4) | ANEMIA, patients (%) (Overall (n=13), grade 1&2): 2 (15.4) | ANOREXIA, patients (%) (Overall (n=13), grade 1&2): 2 (15.4) | CONSTIPATION, patients (%) (Overall (n=13), grade 1&2): 2 (15.4) | DIARRHEA, patients (%) (Overall (n=13), grade 1&2): 4 (30.8) | DYSPNEA, patients (%) (Overall (n=13), grade 1&2): 2 (15.4) | EDEMA LIMBS, patients (%) (Overall (n=13), grade 1&2): 2 (15.4) | ELECTROCARDIOGRAM QT CORRECTED INTERVAL PROLONGED, patients (%) (Overall (n=13), grade 1&2): 5 (38.5) | FATIGUE, patients (%) (Overall (n=13), grade 1&2): 5 (38.5) | LUNG INFECTION, patients (%) (Overall (n=13), grade 1&2): 0 | LUNG INFECTION, patients (%) (Overall (n=13), grade 3+): 2 (15.4) | ACTIVATED PARTIAL THROMBOPLASTIN TIME PROLONGED, patients (%) (human, in vivo): 0 | ANEMIA, patients (%) (human, in vivo): 9 (69.2) | ANOREXIA, patients (%) (human, in vivo): 0 | CONSTIPATION, patients (%) (human, in vivo): 0 | DIARRHEA, patients (%) (human, in vivo): 0 | DYSPNEA, patients (%) (human, in vivo): 0 | EDEMA LIMBS, patients (%) (human, in vivo): 0 | ELECTROCARDIOGRAM QT CORRECTED INTERVAL PROLONGED, patients (%) (human, in vivo): 1 (7.7) | FATIGUE, patients (%) (human, in vivo): 0 | RASH MACULO-PAPULAR, patients (%) (human, in vivo): 1 (7.7)
